According to ChEMBL document CHEMBL3734674, “Design, Synthesis, and Evaluation of Orally Available Clioquinol-Moracin M Hybrids as Multitarget-Directed Ligands for Cognitive Improvement in a Rat Model of Neurodegeneration in Alzheimer's Disease” (J Med Chem, 2015):

Key:
[1] = Metabolic stability in rat liver microsomes after 5 to 180 mins by HPLC-UV analysis; assay type: ADME
[2] = Half life in rat liver microsomes at 100 uM after 5 to 180 mins by HPLC-UV analysis; assay type: ADME

Row | SMILES | k el [1] | half-life at 100 µM [2]
1 | Oc1c(I)cc(Cl)c2cccnc12 [CLIOQUINOL] | 0.000331 s⁻¹ | 34.8 min
2 | COc1cc2c(cc1OC)C(=O)C(CC1CCN(Cc3ccccc3)CC1)C2 (stereo unspecified) [DONEPEZIL] | 0.000149 s⁻¹ | 73.3 min
3 | C[C@]12CC[C@H]3[C@@H](CCC4=CC(=O)CC[C@@]43C)[C@@H]1CC[C@@H]2O [TESTOSTERONE] | 0.00525 s⁻¹ | 2.1 min
